The values that follow come from patent US9951035B2, “Selective matrix metalloproteinase inhibitors” (University of Notre Dame du Lac, priority 2014, dated 2018).

One may read the inhibition as the percentage by which the read-out fell short of the control. Lower therefore signals a response near the control. What is called solubility is the concentration that dissolves in the medium under given conditions. High values mean a readily soluble substance, low ones a poorly soluble substance.

One data set addresses ADAM9 (Homo sapiens (Human), UniProt Q13443). The experiment in a line: Enzyme inhibition studies, ADAM9. It counts as biochemical.
The next data set addresses ADAM10 (Homo sapiens (Human), UniProt O14672). The data set is described as follows: Enzyme inhibition studies, ADAM10. It is filed as biochemical.
Another data set deals with diabetic (db/db) mice. The data set is described as follows: Mouse diabetic wound model. It is filed as in vivo. The following applies: selective MMP-9 inhibition; in words. The source says: The excisional mouse diabetic model validated by Sullivan et al. was used (Sullivan et al., Plast. Reconstr. Surg. (2004) 113, 953-960). The procedure for inflicting the wounds (single 8 mm wound on the dorsal region) was the same as described previously (Gooyit et al., ACS Chem. Biol. (2014) 9, 505-510). Wounds were photographed and covered with a sterile 3M Tegaderm™ transparent dressing (Butler Schein Animal Health, Inc.).
Female diabetic db/db (BKS.Cg-Dock7m+/+Leprdb/J, 8-weeks old, 38±3 g, n=24) were used for this study. Wounds were inflicted as described. Treatment with the MMP-2 inhibitor (50 μL of 5.0 mg/mL in 80% propylene glycol/20% DMSO, equivalent to 0.25 mg per wound) or vehicle (50 μL of 80% propylene glycol/20% DMSO) was started one day after wound infliction and continued once a day for 14 days. Digital photographs of wounds were taken on days 0, 7, 10, and 14 while the animals were under isoflurane anesthesia. On day 14, all mice were sacrificed. The wounds were excised, embedded in optimal cutting temperature (OCT) compound, and cryosectioned for histological evaluation.
Female diabetic db/db (BKS.Cg-Dock7m+/+Leprdb/J, 8-weeks old, 38±3 g, n=24) were used for this study. Wounds were inflicted and the following day the wounds were treated topically with MMP-8 (50 μL of 20 μg/mL MMP-8 in reaction buffer) or vehicle (50 μL reaction buffer) once a day for 14 days. The reaction buffer consisted of 50 mM Tris (pH 7.5), 10 mM CaCl2, 150 mM NaCl, and 0.05% (w/v) Brij-35. Digital photographs of the wounds were taken on days 0, 7, 10, and 14 while animals were under isoflurane anesthesia. On days 7 and 14, 12 mice (n=6 per group) were sacrificed. The wounds were excised, embedded in OCT compound, and cryosectioned for histological evaluation.
Photographs were taken using the procedure described by Gooyit et al. (ACS Chem Biol. (2014) 9, 505-510) at a fixed distance above the wounds and calibrated using a ruler included in the photographic frame. Image J 1.48c software was used to calculate wound areas. The percentage of wound closure was calculated from the wound area on the specified day relative to that on day 0.
Fresh wound tissue was harvested and embedded in OCT compound. Subsequently, the tissue was cryosectioned for H&E staining (12-μm thickness) and for apoptosis assays and in-situ zymography (8-μm thickness). Re-epithelialization was assessed on a Nikon Eclipse 90i Fluorescent Microscope (Nikon Instruments Inc.) as described earlier (Tkalcevic et al., Toxicol. Pathol. (2009) 37, 183-192). Apoptosis was evaluated using Derma TACS™ Apoptosis detection kits (Trevigen, Inc.) according to the manufacturer's instructions. The protocol of in-situ zymography was adapted from known methods. Gelatinolytic activity was detected in unfixed cryostat sections using DQ-gelatin as a substrate. DQ-gelatin was prepared at a concentration of 20 μg/mL in Tris-buffered saline (TBS) buffer (50 mM TBS pH 7.6, 1 mM CaCl2). A general MMP inhibitor in 0.5 mM EDTA was prepared as a negative control. Cryostat sections were air-dried for 10 min and incubated in the substrate mixture in the presence and absence of EDTA for 1 hr at room temperature. After the incubation period, the slides were washed in PBS (three times, 5 min each), fixed with 4% paraformaldehyde in PBS for 10 min in the dark, washed again with PBS (three times, 5 min each), incubated in the dark for 5 min with 300 nM DAPI solution, and mounted with anti-quenching mounting medium. Fluorescence of FITC was detected with excitation at 460-500 nm and emission at 512-542 nm. DAPI was detected with excitation at 340-380 nm and emission at 425-∞ nm.
Data are expressed as mean±SD. Wound healing between the groups in the studies were analyzed for statistical significance using a paired Student t-test, where p<0.05 was considered statistically significant.

For data set [1], the system named is non-diabetic wounds. The data set is described as follows: Healing of non-diabetic wounds. It counts as in vivo, mice. The following applies: in words.
For the next data set, the target named is MMP-1 (Homo sapiens (Human), UniProt P03956). The conditions noted are these: at 250 μM; data from Gooyit et al. 2014; cited from earlier work.
A further data set deals with MMP-7 (Homo sapiens (Human), UniProt P09237). The conditions noted are these: at 250 μM; data from Gooyit et al. 2014; cited from earlier work.
A further data set can be described thus: physchem. The following applies: water, thermodynamic from solid.
Data set [2] deals with non-diabetic wounds. The conditions noted are these: rats, pigs, and humans; in words; cited from earlier work.

Converted amounts (≈) assume the structure as drawn.

Chain of ADAM9 (Q13443 206-697): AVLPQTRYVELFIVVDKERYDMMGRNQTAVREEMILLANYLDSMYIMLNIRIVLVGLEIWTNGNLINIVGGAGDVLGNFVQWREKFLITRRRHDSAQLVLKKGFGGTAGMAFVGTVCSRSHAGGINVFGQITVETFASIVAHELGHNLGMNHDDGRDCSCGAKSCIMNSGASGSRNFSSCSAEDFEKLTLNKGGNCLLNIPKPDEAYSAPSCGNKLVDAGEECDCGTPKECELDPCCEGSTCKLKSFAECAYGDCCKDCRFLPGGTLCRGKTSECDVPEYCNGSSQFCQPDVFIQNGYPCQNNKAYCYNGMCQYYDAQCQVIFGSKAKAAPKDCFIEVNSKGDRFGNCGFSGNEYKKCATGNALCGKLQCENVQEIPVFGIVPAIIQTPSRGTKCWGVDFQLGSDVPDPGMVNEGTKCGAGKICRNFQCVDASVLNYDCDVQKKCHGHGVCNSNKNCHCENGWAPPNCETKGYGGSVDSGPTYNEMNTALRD
Chain of MMP-7 (P09237 95-267): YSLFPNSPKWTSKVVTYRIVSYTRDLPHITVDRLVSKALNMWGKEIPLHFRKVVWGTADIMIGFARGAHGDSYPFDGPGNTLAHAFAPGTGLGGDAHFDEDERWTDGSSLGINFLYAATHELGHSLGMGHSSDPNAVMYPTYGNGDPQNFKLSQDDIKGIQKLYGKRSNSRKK
Chain of MMP-1 (P03956 98-276): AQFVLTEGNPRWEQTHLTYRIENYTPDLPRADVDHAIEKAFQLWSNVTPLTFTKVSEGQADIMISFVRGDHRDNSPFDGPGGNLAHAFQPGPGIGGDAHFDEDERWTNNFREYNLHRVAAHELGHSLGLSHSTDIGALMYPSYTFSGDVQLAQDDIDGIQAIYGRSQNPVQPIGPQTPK
Chain of ADAM10 (O14672 214-672): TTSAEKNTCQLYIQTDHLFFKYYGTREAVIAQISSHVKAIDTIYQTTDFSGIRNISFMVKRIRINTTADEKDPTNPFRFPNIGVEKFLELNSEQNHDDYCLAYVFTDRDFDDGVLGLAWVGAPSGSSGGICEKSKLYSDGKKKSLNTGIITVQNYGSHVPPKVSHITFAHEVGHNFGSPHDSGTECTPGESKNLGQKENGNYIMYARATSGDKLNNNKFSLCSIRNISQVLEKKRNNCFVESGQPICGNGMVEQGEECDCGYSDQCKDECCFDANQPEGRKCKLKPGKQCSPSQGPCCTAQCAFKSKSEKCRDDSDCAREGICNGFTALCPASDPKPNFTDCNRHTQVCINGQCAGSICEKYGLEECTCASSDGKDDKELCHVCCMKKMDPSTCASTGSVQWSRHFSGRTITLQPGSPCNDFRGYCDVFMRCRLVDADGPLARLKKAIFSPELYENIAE

Take `Nc1ccc(Oc2ccc(S(=O)(=O)CC3CS3)cc2)cc1` (centres unmarked) [Compound 2]: the inhibition at 20 µM at ADAM9 stood at 30%; against ADAM10 it was 21%. Moreover, the “healing of diabetic wounds” value in the data set with diabetic (db/db) mice is “healed more rapidly”. In addition, the “effect on non-diabetic wounds” value in the data set with non-diabetic wounds [1] was “does not show any effect”. The Inhibition at MMP-1 is reported as 10%^i, j; on MMP-7 it was 16%^i, j. In “physchem”, the solubility is 4900 µg/mL (≈ 15.2 mM).

Turning to `CNC(=O)[C@H](Cc1c[nH]c2ccccc12)NC(=O)[C@@H](CC(=O)NO)CC(C)C` [ilomastat], in the data set on non-diabetic wounds [2], the “wound closure and epithelialization in non-diabetic wounds” value is “delayed wound closure and diminished epithelialization”.
